This note sets out measurements from patent US8507714B2, “7-membered ring compound and method of production and pharmaceutical application thereof” (Daiichi Sankyo Company, Limited, priority 2004, dated 2013).

Series [1] deals with DNFB-induced dermatitis in C3H/HeN mice. The settings on record: 10 mg/kg orally once a day; 24 hours after DNFB application at fifth application; female C3H/HeN mice. The method, then: Effect of Test Compounds on Dermatitis Model Induced by Repeated Application of Hapten
As a control group, acetone:olive oil (1:3) was applied by the same protocol. Ear thickness was measured at every week before DNFB application and 24, 48 and 72 hours after DNFB application by using microgauge (Mitutoyo), and ear edema was evaluated by the increase in ear thickness compared to the ear thickness before the first DNFB application. […] The test compound was suspended in 0.5% hydroxypropylcellulose in distilled water (hereinafter referred to as “0.5% HPC-distilled water”) and was administered orally at doses of 2 and 10 mg/kg once a day, every day from just before the first application of hapten to the end of the experiment. Further, as a control, 0.5% HPC-distilled water instead of the test compound was administered by the same methods. The number of mice used in this experiment was seven per group.

As for `COc1ccc(F)cc1/C=C1\CNC(=O)CN(S(=O)(=O)c2ccc(Cl)s2)C1=O`, the melting point lay within 150 to 153 °C.
The same measure, in the same setting: as for `CC[C@@H](NC(=O)N1CC(=O)NC[C@@H](Cc2cc(Cl)ccc2OC)C1=O)c1cccc(C(=O)[O-])c1.[Na+]`, the figure is 161 to 163 °C; as for `COC(=O)C[C@@H]1C(=O)NC[C@H](Cc2cc(F)ccc2OC)C(=O)N1S(=O)(=O)c1ccc(Cl)cc1`, 73 to 76 °C.
Same read-out and setting: as for `CC[C@@H](NC(=O)N1CC(=O)NCC(Cc2cc(Cl)ccc2OC)C1=O)C(=O)Nc1nnn[nH]1` (some centres unmarked), the figure is 141 to 142 °C; as for `CC[C@@H](NC(=O)N1CC(=O)NCC(Cc2cc(Cl)ccc2OC)C1=O)C(=O)Nc1ccc(C)c(C(=O)O)c1` (some centres unmarked), 132 to 134 °C.
Same read-out and setting: with `COC(=O)COc1ccc(Cl)cc1CC1CNC(=O)CN(S(=O)(=O)c2ccc(Cl)cc2)C1=O` (centres unmarked) the figure was 138 to 140 °C.
`O=C(CN1CC(Cc2ccccc2)C(=O)N(S(=O)(=O)c2ccc(Cl)cc2)CC1=O)NCc1ccccc1` (centres unmarked): the melting point was in the range of 187 to 190 °C.
`COc1ccc(Cl)cc1CC1CNC(=O)CN(C(=O)Nc2cccc(NC(C)=O)c2)C1=O` (centres unmarked) gave a melting point of 130 to 131 °C.
In the case of `Cc1cccc(CC2CNC(=O)CN(S(=O)(=O)c3ccc(Cl)cc3)C2=O)c1` (centres unmarked), the melting point lay in the range of 64 to 66 °C.
On to `N#Cc1ccc(S(=O)(=O)N2CC(=O)NC/C(=C\c3ccccc3)C2=O)cc1`, for which the melting point was 239 °C (dec.).
Still for that read-out and setting: with `COc1ccc(Cl)cc1C[C@H]1CNC(=O)[C@@H](C)N(S(=O)(=O)c2ccc(Cl)cc2)C1=O` the figure was 78 to 80 °C.
Consider `COc1cc(Cl)c(F)cc1CC1CNC(=O)CN(S(=O)(=O)c2ccc(Cl)cc2)C1=O` (centres unmarked), for which the melting point was in the range of 80 to 90 °C.
Regarding `COc1ccc(Cl)cc1CC1CNC(=O)CN(S(=O)(=O)c2ccc(Cl)cc2)C1=O` (centres unmarked) [Compound 29, 6-(5-chloro-2-methoxybenzyl)-4-[(4-chlorophenyl)sulfonyl]-1,4-diazepan-2,5-dione], the melting point lay in the range of 110 to 112 °C. Besides, in series [1], the “inhibition rate of the skin reaction” value is given as 31.0%.
Take `COc1ccc(Cl)cc1CC1CNC(=O)CN(S(=O)(=O)c2ccc(Cl)c(N)c2)C1=O.Cl` (centres unmarked) [Compound 90, 4-[(3-amino-4-chlorophenyl)sulfonyl]-6-(5-chloro-2-methoxybenzyl)-1,4-diazepan-2,5-dione Hydrochloride]: in series [1], the “inhibition rate of the skin reaction” value came out at 25.1%.
`CC[C@@H](NC(=O)N1CC(=O)NC[C@@H](Cc2cc(Cl)ccc2OC)C1=O)c1cccc(C(=O)O)c1` [Compound 91, 3-[(1R)-1-({[(6R)-6-(5-chloro-2-methoxybenzyl)-3,7-dioxo-1,4-diazepan-1-yl]carbonyl}amino)propyl]benzoic Acid]: the melting point lay within 121 to 123 °C. Also, in series [1], the “inhibition rate of the skin reaction” value worked out at 26.1%.

A word on the melting point: it is the temperature of the solid-liquid transition.
